The record followed here is US20230099837A1, “COMPOSITIONS AND METHODS FOR TREATING NEURODEGENERATIVE DISORDERS WITH RIPK1/RIPK3 INHIBITORS” (Arizona Board of Regents on Behalf of the University of …, priority 2020, published 2023).

Format in all cases: cell-based
The subject of one test is Phospho-RIPK3 (Ser227). Put plainly: Western blot, phosphorylated RIPK3 in HT-29 cells. To be noted: 100 μM, necroptosis induced 3 hrs, normalized to b-actin. How it is done: As previously reported, RIPK3 activation from necroptotic stimulus can be readily and accurately measured by phosphorylation at Ser227 (see, Chen, W. Z. et al. Journal of Biological Chemistry 288, 16247-16261 (2013)).
(§1) HT-29 cells were grown as described above and plated on a 6 well plate. After incubating overnight, cells were incubated with 100 μM of noted compounds in FIG. 3 for 30 min._Necroptosis was induced in the cells for 3 hours, as described in Necroptosis flow assay section, before harvesting with 75 μL RIPA buffer system (Santa Cruz sc-24948) containing 2 mM PMSF, 1 mM Sodium Orthovanadate, and 1% final volume of protease inhibitor. Samples were_centrifuged for 10 min at 20000×g and 4° C. The supernatant was mixed with 25 μL of NuPAGE_LDS sample buffer dye 4× containing 0.1 M DTT and heated for 10 min at 90° C. SDS-PAGE_separation and membrane transfer were performed as described under the CETSA protocol. […]
(§2) The secondary Anti-rabbit IgG, HRP-linked antibody (Cell Signaling Technology #7074S) was_used at a dilution of 1:1500 in PBS-T with 5% BSA. […] Data_were quantified with ImageLab™ software. […]

The next test deals with RIPK1. Put plainly: Western blot, total RIPK1 in HT-29 cells. To be noted: 100 μM, necroptosis induced 3 hrs, normalized to b-actin. How it is done: (§3) If RMITC03 and RMITC09 are disrupting the protein-protein interactions between RIPK3 and MLKL, then the effect of such inhibition should be observed in the activation of MLKL. To test this, HT-29 cells were treated with 100 μM of each compound for 30 min before necroptosis induction. Cells were harvested after 3 hrs with RIPA buffer in order to determine amount of inhibition at each stage of the necroptotic signaling molecules. When comparing the amounts of RIPK1, RIPK3, and MLKL in DMSO treated necroptosis activated cells (T/S/Z) against non necroptosis activated cells (Non-treated samples), there is no statistically significant difference in the amounts of these proteins (FIG. 6A-B).
(§4) HT-29 cells were grown as described above and plated on a 6 well plate. After incubating overnight, cells were incubated with 100 μM of noted compounds in FIG. 3 for 30 min._Necroptosis was induced in the cells for 3 hours, as described in Necroptosis flow assay section, before harvesting with 75 μL RIPA buffer system (Santa Cruz sc-24948) containing 2 mM PMSF, 1 mM Sodium Orthovanadate, and 1% final volume of protease inhibitor. Samples were_centrifuged for 10 min at 20000×g and 4° C. […]
as §2

For a further test, the system named is Phospho-RIPK1 (Ser166). Briefly: Western blot, phosphorylated RIPK1 in HT-29 cells. To be noted: 100 μM, necroptosis induced 3 hrs, normalized to b-actin.
Source text: Autophosphorylation of RIPK1 at Ser166 facilitates RIPK1 kinase activity to induce cell_death (see, Meng, H. Y. et al. Proceedings of the National Academy of Sciences of the United States of America 115, E2001-E2009 (2018)). As such, phosphorylation at Ser166 was used to detect activation of necroptosis. […] Similarly, in the non-necroptosis activated on treated sample, there is also no phosphorylated RIPK1 signal. When comparing the DMSO sample to RMITC03 and RMITC09 treated samples, there is a large amount of activated phosphorylated RIPK1 with no difference between the DMSO control and RMITC03 and RMITC09 compounds.
as §4, §2

The next test has as its system RIPK3. Briefly: Western blot, total RIPK3 in HT-29 cells. To be noted: 100 μM, necroptosis induced 3 hrs, normalized to b-actin. How it is done:
as §3, §4, §2

A further test relates to Phospho-MLKL (Ser358). Briefly: Western blot, phosphorylated MLKL in HT-29 cells. The note with it: 100 μM, necroptosis induced 3 hrs, normalized to b-actin. How it is done: RIPK3 is known to activate MLKL through phosphorylation at Ser358 for necroptotic cell death (see, Sun, L. M. et al. Cell 148, 213-227 (2012)). Therefore, the amount of phosphorylated MLKL at Ser358 was used to determine if any inhibition of MLKL activation occurred.
as §1, §2
For orientation: In western blotting, separated proteins are transferred to a membrane and probed.

Another test deals with MLKL. Put plainly: Western blot, total MLKL in HT-29 cells. The note with it: 100 μM, necroptosis induced 3 hrs, normalized to b-actin. How it is done: as §3, §4, §2
The next test deals with HT-29 cells. Briefly: Necroptosis flow assay (Annexin V / propidium iodide staining, flow cytometry). The note with it: 100 μM compound 30 min before induction with TNF-a/Z-VAD-fmk/SM-164 for 7 hours, vs DMSO. How it is done: Necroptosis was allowed to proceed for 7 hours (hrs) before Annexin V and propidium iodide staining and flow cytometry analysis (FIG. 3). Cells staining positive for either Annexin V or propidium iodide were quantified as necroptotic cells (FIG. 1F). […] Docking results from RMITC03 and RMITC09 indicate most interactions are driven through hydrophobic interactions with a few hydrogen bonds interacting with the backbone of the protein (FIG. 1D-E).
HT-29 cells were grown in DMEM (Corning 10-013-CV) with 10% FBS (HyClone SH3091003)_and incubated at 37° C. and 5% CO2. […] Necroptosis was induced with 25 ng/mL TNF-a (Prospec CYT-223), 20_μM Z-VAD-fmk (AdooQ Bioscience A12373), and 0.1 μM SM-164 (AdooQ Bioscience A15800) for 7 hours in an incubator at 37° C. and 5% CO2. HT-29 cells were trypsinized (Corning 25-053-CI) and washed with DPBS (Corning 21-031-CV) (see, Bundscherer, A. et al. Anticancer Research 33, 3201-3204 (2013)). Cells were processed and stained with Annexin V and propidium iodide as described by manufacturer's protocol in the eBioscience™ Annexin V-FITC Apoptosis Detection Kit (Invitrogen BMS500FI-500). Flow cytometry was performed with MACSQuant® Analyzer 10 and data was processed with Flowlogic™ flow cytometry analysis software.
On the technique in general: In flow cytometry, cells or beads pass a laser one at a time.

“Also recorded” adds a separate entry of the source.

For the compound `CN1C(=O)C(Cc2c[nH]c3ccccc23)NC1=S` (stereo not shown) [Nec-1], the “phosphorylated RIPK3 (Ser227) compared to DMSO” value with Phospho-RIPK3 (Ser227) is on record as “did not completely inhibit activation of phosphorylated RIPK3”. In addition, in the test on RIPK1, the “amount of RIPK1 compared to DMSO” value was “no significant difference”. Also, the “phosphorylated RIPK1 (Ser166) signal compared to DMSO” value with Phospho-RIPK1 (Ser166) is on record as “significant decrease; also recorded: no observable phosphorylated RIPK11 signal”. In the test with RIPK3, the “amount of RIPK3 compared to DMSO” value is reported as “no significant difference”. The “phosphorylated MLKL (Ser358) compared to DMSO” value with Phospho-MLKL (Ser358) was “significant decrease; also recorded: lowest levels of phosphorylated MLKL”. In addition, the “amount of MLKL compared to DMSO” value in the test on MLKL was “no significant difference”.
Turning to `CC(C)S(=O)(=O)c1ccc2nccc(Nc3ccc4scnc4c3)c2c1` [GSK'872], the “inhibitory effect on necroptosis (cells positive for Annexin V or propidium iodide)” value with HT-29 cells is “largest inhibition of necroptosis”. In addition, the “phosphorylated RIPK3 (Ser227) compared to DMSO” value in the test on Phospho-RIPK3 (Ser227) is on record as “significant decrease; also recorded: Inhibition of activated phosphorylated RIPK3 at Ser227”. In the test on RIPK1, the “amount of RIPK1 compared to DMSO” value is recorded as “no significant difference”. For the same compound, the “phosphorylated RIPK1 (Ser166) signal compared to DMSO” value with Phospho-RIPK1 (Ser166) is given as “significant decrease; also recorded: no observable phosphorylated RIPK11 signal”. In addition, the “amount of RIPK3 compared to DMSO” value with RIPK3 is listed as “no significant difference”. In addition, the “phosphorylated MLKL (Ser358) compared to DMSO” value in the test with Phospho-MLKL (Ser358) is “significant decrease; also recorded: lowest levels of phosphorylated MLKL”. The “amount of MLKL compared to DMSO” value in the test on MLKL is reported as “no significant difference”.
